Measured values taken from patent US10233184B2, “7-substituted sulfonimidoylpurinone compounds and derivatives for the treatment and prophylaxis of virus infection” (Hoffmann-La Roche Inc., priority 2016, dated 2019).

Target: T1, human TLR7 (Homo sapiens, UniProt Q9NYK1)
T1 sequence (Q9NYK1 27-1049): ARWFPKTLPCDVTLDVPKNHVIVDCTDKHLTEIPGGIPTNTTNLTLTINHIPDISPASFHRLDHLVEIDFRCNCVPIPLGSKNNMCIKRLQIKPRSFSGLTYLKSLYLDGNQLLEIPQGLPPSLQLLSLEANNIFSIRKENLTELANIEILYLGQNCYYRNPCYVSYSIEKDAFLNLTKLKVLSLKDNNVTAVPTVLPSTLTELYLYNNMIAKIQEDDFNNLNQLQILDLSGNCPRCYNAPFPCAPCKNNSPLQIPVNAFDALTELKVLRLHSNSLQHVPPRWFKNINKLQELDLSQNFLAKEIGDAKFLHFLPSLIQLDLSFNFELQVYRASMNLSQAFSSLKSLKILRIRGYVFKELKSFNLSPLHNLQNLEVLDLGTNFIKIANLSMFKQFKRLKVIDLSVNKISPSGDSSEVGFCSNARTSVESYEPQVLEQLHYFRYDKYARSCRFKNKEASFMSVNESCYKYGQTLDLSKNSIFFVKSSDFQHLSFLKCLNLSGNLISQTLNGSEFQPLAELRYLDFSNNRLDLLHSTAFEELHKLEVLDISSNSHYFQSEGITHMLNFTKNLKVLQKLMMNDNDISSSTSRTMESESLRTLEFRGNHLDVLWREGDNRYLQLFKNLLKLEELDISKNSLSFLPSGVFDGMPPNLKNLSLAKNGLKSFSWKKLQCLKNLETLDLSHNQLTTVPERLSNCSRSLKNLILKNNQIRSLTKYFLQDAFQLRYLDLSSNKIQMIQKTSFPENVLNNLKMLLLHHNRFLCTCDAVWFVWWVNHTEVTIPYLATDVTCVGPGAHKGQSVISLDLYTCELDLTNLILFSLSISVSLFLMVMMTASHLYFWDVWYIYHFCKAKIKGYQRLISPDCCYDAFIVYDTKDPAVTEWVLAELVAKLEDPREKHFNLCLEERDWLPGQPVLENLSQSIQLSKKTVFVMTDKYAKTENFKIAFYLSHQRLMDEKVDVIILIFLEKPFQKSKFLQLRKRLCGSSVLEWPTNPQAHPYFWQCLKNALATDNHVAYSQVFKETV
Assay: HEK293-Blue-hTLR-7 cells assay (SEAP reporter)
Assay type: cell-based
Details: for Ratio (EC50(prodrug)/EC50(active form)): EC50 of prodrug over EC50 of corresponding active form; for EC50: HEK293-Blue-hTLR-7 cells, SEAP reporter, 20 hrs, prodrug, read-out: HEK293-hTLR-7 EC50 (Prodrug)
How it was run: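 HEK293-Blue-hTLR7 cells with NF-κB/AP-1-driven SEAP reporter exposed to serially diluted compound (1% DMSO) for 20 hrs at 37° C. Supernatant SEAP measured with QUANTI-Blue after 2 hrs at 37° C, absorbance 620~655 nm; agonism expressed as EC50.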

SMILES	Ratio (EC50(prodrug)/EC50(active form))	EC50 [µM]
CCN(C)C(=O)n1c(=O)n(Cc2ccc(Cl)cc2)c2nc([S@@](=N)(=O)CC)nc(N)c21 [Example 42-A, 6-Amino-9-[(4-chlorophenyl)methyl]-N-ethyl-2[S(S)-ethylsulfonimidoyl]-N-methyl-8-oxo-purine-7-carboxamide]	570.4	40.5
CCCN(C)C(=O)n1c(=O)n(Cc2ccc(C)cc2)c2nc([S@](=N)(=O)CC)nc(N)c21 [Example 43-A, 6-Amino-2-[S(R)-ethylsulfonimidoyl]-N-methyl-8-oxo-N-propyl-9-(p-tolylmethyl)purine-7-carboxamide]	1000	110
CCCN(C)C(=O)n1c(=O)n(Cc2ccc(Cl)cc2)c2nc([S@@](=N)(=O)CC)nc(N)c21 [Example 41-B, 6-Amino-9-[(4-chlorophenyl)methyl]-2-[S(S)-ethylsulfonimidoyl]-N-methyl-8-oxo-N-propyl-purine-7-carboxamide]	452.1	32.1
CCCN(C)C(=O)n1c(=O)n(Cc2ccc(Cl)cc2)c2nc([S@](=N)(=O)CC)nc(N)c21 [Example 41-A, 6-Amino-9-[(4-chlorophenyl)methyl]-2-[S(R)-ethylsulfonimidoyl]-N-methyl-8-oxo-N-propyl-purine-7-carboxamide]	518.8	44.1
